Measurements as given in the supplement of paper PMC5908809.

Key:
[1] = test system: IMC-1 (IL-2 20 ng/mL); experiment: drug sensitivity score (DSS) (DSS units); higher = more sensitive; extreme values may be limits of the assay; conditions: 72 h
[2] = test system: KHYG-1 (IL-2 2.5 ng/mL); experiment: as above; conditions: 72 h
[3] = test system: normal primary NK cells, pool 3 (3 donors) (IL-2 2.5 ng/mL); experiment: as above; conditions: 72 h
[4] = test system: normal primary NK cells, pool 1 (3 donors), resting (IL-2 0 ng/mL); experiment: as above; conditions: 72 h
[5] = test system: NK-YS (IL-2 2.5 ng/mL); experiment: as above; conditions: 72 h
[6] = test system: DERL-7 (IL-2 2.5 ng/mL); experiment: as above; conditions: 72 h
[7] = test system: normal primary NK cells, pool 1 (3 donors) (IL-2 2.5 ng/mL); experiment: as above; conditions: 72 h
[8] = test system: normal primary NK cells, pool 2 (3 donors) (IL-2 2.5 ng/mL); experiment: as above; conditions: 72 h
[9] = test system: NKL (IL-2 2.5 ng/mL); experiment: as above; conditions: 72 h
[10] = test system: KAI3 (IL-2 2.5 ng/mL); experiment: as above; conditions: 72 h
[11] = test system: NK-92 (IL-2 2.5 ng/mL); experiment: as above; conditions: 72 h
[12] = test system: SNK-6 (IL-2 2.5 ng/mL); experiment: as above; conditions: 72 h
[13] = test system: YT (IL-2 2.5 ng/mL); experiment: as above; conditions: 72 h
[14] = test system: normal NK cells expanded with K562-aAPC; experiment: as above; conditions: 72 h; IL-2 2.5 ng/mL
Protocol: (§1)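 Drug sensitivity and resistance testing on K562-aAPC-expanded normal NK cells: 5 concentrations (10-fold steps over a 10,000-fold range), 72 h at 37 °C, viability by CellTiter-Glo normalised to DMSO and benzethonium chloride controls; DSS from the fitted curve.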

[15] = test system: normal NK cells expanded with K562-aAPC; experiment: percent inhibition of viability; higher = more inhibition; conditions: 72 h, IL-2 2.5 ng/mL
Protocol: as §1

[16] = test system: IMC-1 (IL-2 20 ng/mL); experiment: as above; conditions: 72 h
[17] = test system: KHYG-1 (IL-2 2.5 ng/mL); experiment: as above; conditions: 72 h
[18] = test system: normal primary NK cells, pool 3 (3 donors) (IL-2 2.5 ng/mL); experiment: as above; conditions: 72 h
[19] = test system: normal primary NK cells, pool 1 (3 donors), resting (IL-2 0 ng/mL); experiment: as above; conditions: 72 h
[20] = test system: NK-YS (IL-2 2.5 ng/mL); experiment: as above; conditions: 72 h
[21] = test system: DERL-7 (IL-2 2.5 ng/mL); experiment: as above; conditions: 72 h
[22] = test system: normal primary NK cells, pool 1 (3 donors) (IL-2 2.5 ng/mL); experiment: as above; conditions: 72 h
[23] = test system: normal primary NK cells, pool 2 (3 donors) (IL-2 2.5 ng/mL); experiment: as above; conditions: 72 h
[24] = test system: NKL (IL-2 2.5 ng/mL); experiment: as above; conditions: 72 h
[25] = test system: KAI3 (IL-2 2.5 ng/mL); experiment: as above; conditions: 72 h
[26] = test system: NK-92 (IL-2 2.5 ng/mL); experiment: as above; conditions: 72 h
[27] = test system: SNK-6 (IL-2 2.5 ng/mL); experiment: as above; conditions: 72 h
[28] = test system: YT (IL-2 2.5 ng/mL); experiment: as above; conditions: 72 h

CCn1c(C(=O)N(C2CC2)C2CC2)cc2c3c(ncn3C)c(Nc3cc(C)n(C)n3)nc21 (max concentration tested 10000 nM)
Conditions	drug sensitivity score
[1]	0
[2]	5.93
[3]	2.38
[4]	0
[5]	3.29
[6]	4.87
[7]	3.85
[8]	3.12
[9]	8.84
[10]	14.5
[11]	4.85
[12]	0
[13]	4.02
[14]	5.99

percent inhibition of viability [%]
Conditions	1 nM	10 nM	100 nM	1000 nM	10000 nM
[15]	5.29	4.9	4.54	16	63.8
[16]	-1.17	2.69	0.12	-11.6	-7.89
[17]	4.48	5.02	4.17	12.6	69.7
[18]	5.51	-1.86	3.33	6.54	30.7
[19]	-6.63	-4.84	-10.8	4.13	5.86
[20]	4.8	6.33	4.46	16.1	36.6
[21]	0.43	0.75	1.97	12.3	54.1
[22]	-3.85	-1.69	-6.9	11.7	41.6
[23]	-2.38	-1.43	0.57	3.6	49
[24]	0.96	-1.04	3.26	41.2	70.4
[25]	14.1	21.2	27.8	44.8	76.3
[26]	4.07	7.86	-2	9.2	60.7
[27]	-4.81	22.8	-3.45	-16.6	7.74
[28]	9.25	9.54	7.25	14.5	46.5

O=C(O)c1ccc(-c2c[nH]c3ncc(-c4ccccc4)cc23)cc1C1CCCC1 (max concentration tested 10000 nM)
Conditions	drug sensitivity score
[1]	4.18
[2]	8.41
[3]	1.43
[4]	3.47
[5]	4.89
[6]	4.22
[7]	3.22
[8]	3.48
[9]	7.3
[10]	8.09
[11]	4.5
[12]	0
[13]	3.73
[14]	6.12

percent inhibition of viability [%]
Conditions	1 nM	10 nM	100 nM	1000 nM	10000 nM
[15]	0.69	-1.15	0.93	14.6	68.6
[16]	-3.86	-6.5	-2.05	1.32	72.7
[17]	1.54	-1.17	6.23	24.4	87.8
[18]	2.83	5.65	10	2.66	25.9
[19]	-0.46	4.28	6.33	11.9	41.2
[20]	3.9	-4.11	6.44	17.4	53.2
[21]	-9.96	-1.92	-0.6	3.14	69
[22]	-4.88	9.93	9.09	13.8	33.7
[23]	-5.78	-5.79	-4.92	6.53	46
[24]	-3	3.11	11.4	27.3	76.9
[25]	14.8	11.5	12.9	31	53.1
[26]	-7.79	-6.02	-14.8	6.45	63.1
[27]	2.78	-21.4	-20.9	-24.3	-8.86
[28]	3.57	-0.35	6.38	10.9	43.5

C[C@@H]1CN(CC(=O)Nc2ccc3c(c2)Cc2cccc(-c4cc(=O)cc(N5CCOCC5)o4)c2S3)C[C@H](C)O1 (max concentration tested 25000 nM)
Conditions	drug sensitivity score
[1]	5.86
[2]	8.65
[3]	3.14
[4]	8.7
[5]	6.02
[6]	6.89
[7]	6.71
[8]	5.1
[9]	7.43
[10]	7.81
[11]	8.57
[12]	6.99
[13]	6.69
[14]	2.76

percent inhibition of viability [%]
Conditions	2.5 nM	25 nM	250 nM	2500 nM	25000 nM
[15]	-9.26	-9.66	-11.6	-3.45	56.6
[16]	-9.5	-5.69	-6.07	2.99	98.3
[17]	-6.23	-8.72	-3.2	18.6	107
[18]	-1.38	0.2	6.37	-0.76	59.3
[19]	10.2	6.26	7.45	30.7	89
[20]	-6.64	-9	-7.16	8.32	84.3
[21]	-2	-3.36	-4.44	13	85.2
[22]	-8.95	-10.4	-7.4	10	91.3
[23]	-2.96	-5.92	1.66	7.62	69.8
[24]	-13.9	-22.8	-12.4	24.9	71
[25]	5.88	0.49	-7.91	18.6	87.2
[26]	-7.1	-15.1	-2.57	18.6	101
[27]	-10.7	-10.4	-8.37	9	100
[28]	-6.13	-5.84	-0.59	8.43	96.4

Cn1cc(C[C@@H](N)C(=O)O)c2ccccc21 [1-methyl-D-tryptophan] (max concentration tested 5000 nM)
Conditions	drug sensitivity score
[1]	0
[3]	0
[8]	0
[14]	0

percent inhibition of viability [%]
Conditions	0.5 nM	5 nM	50 nM	500 nM	5000 nM
[15]	-12.1	-7.01	-8.73	0.95	6.01
[16]	-6.61	-9.96	-5.67	-2.82	0.08
[18]	-7.11	-12.2	0.9	5.49	5.66
[23]	-6.45	-5.59	-1.81	4.04	6.29

CC/C(=C(\c1ccc(O)cc1)c1ccc(OCCN(C)C)cc1)c1ccccc1 [4-hydroxytamoxifen] (max concentration tested 10000 nM)
Conditions	drug sensitivity score
[1]	5.5
[2]	5.42
[3]	3.03
[4]	4.19
[5]	4.91
[6]	7.09
[7]	3.97
[8]	5.13
[9]	4.98
[10]	6.52
[11]	6.14
[12]	4.28
[13]	6.69
[14]	4.78

percent inhibition of viability [%]
Conditions	1 nM	10 nM	100 nM	1000 nM	10000 nM
[15]	-7.32	-3.75	-0.57	7.65	64
[16]	-4.59	-0.5	3.38	9.15	71.8
[17]	-2.07	1.6	5.77	21.8	55.9
[18]	-0.81	-2.52	-1.24	3.05	49.3
[19]	-6.81	0.21	-12.3	-11.9	88.8
[20]	-2.09	3.5	7.72	7.44	66.8
[21]	7.02	-0.93	4.62	16.8	79.2
[22]	-13	0.38	-1.85	-2.34	75.4
[23]	-4	-6.91	4.61	4.67	80.2
[24]	8.86	-6.55	2.97	4.58	77.8
[25]	7.22	10.1	14.3	5.63	102
[26]	3.77	-3.77	6.43	2.65	103
[27]	-1.81	-16.4	0.89	-17.1	93.9
[28]	3.34	-0.32	-0.38	9.38	93.1
